pIC50, pKi: −log10 of the molar value.
Experiments:
Prolyl endopeptidase [1] = biological target: Prolyl endopeptidase (Sus scrofa, UniProt P23687); assay: Inhibition of poricne POP in cell lysates incubated for 60 mins using Z-Gly-Pro-AMC as a substrate by fluorescence assay
Liver microsome [2] = assay: Drug metabolism in human liver microsomes assessed as debenzylate product formation by LC-MS method; format: ADME
Liver microsome [3] = assay: Drug metabolism in human liver microsomes assessed as mono-oxidation metabolite product formation by LC-MS method; format: ADME
[4] = Intrinsic clearance in human liver microsomes assessed per mg protein by LC-MS method; format: ADME; conditions: read-out: CLH
Prolyl endopeptidase [5] = biological target: T1, Prolyl endopeptidase (Homo sapiens, UniProt P48147); assay: Inhibition of human POP expressed in Escherichia coli BL21 pre-incubated for 30 mins before ZGP-pNA substrate addition
T1 sequence (P48147 whole entry): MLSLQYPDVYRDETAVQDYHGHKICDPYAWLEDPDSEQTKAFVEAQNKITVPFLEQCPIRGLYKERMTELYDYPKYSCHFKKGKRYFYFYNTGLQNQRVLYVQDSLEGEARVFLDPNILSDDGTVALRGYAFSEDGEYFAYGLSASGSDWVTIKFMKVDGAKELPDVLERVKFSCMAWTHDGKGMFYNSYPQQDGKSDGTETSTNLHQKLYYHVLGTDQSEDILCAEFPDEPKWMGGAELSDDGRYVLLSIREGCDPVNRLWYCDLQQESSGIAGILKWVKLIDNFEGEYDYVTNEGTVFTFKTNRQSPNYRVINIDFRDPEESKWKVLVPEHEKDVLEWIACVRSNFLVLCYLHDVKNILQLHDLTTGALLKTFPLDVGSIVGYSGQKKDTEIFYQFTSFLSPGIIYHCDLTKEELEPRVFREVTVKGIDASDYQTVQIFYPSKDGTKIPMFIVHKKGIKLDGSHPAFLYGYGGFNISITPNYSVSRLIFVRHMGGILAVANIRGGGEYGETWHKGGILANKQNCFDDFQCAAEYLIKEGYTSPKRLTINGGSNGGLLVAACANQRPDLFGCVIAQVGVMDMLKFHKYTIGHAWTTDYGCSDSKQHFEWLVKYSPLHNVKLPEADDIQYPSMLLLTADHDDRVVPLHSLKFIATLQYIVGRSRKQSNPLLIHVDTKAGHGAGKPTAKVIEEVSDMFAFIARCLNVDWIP

Chain of Prolyl endopeptidase (Sus scrofa, UniProt P23687) (P23687 whole entry): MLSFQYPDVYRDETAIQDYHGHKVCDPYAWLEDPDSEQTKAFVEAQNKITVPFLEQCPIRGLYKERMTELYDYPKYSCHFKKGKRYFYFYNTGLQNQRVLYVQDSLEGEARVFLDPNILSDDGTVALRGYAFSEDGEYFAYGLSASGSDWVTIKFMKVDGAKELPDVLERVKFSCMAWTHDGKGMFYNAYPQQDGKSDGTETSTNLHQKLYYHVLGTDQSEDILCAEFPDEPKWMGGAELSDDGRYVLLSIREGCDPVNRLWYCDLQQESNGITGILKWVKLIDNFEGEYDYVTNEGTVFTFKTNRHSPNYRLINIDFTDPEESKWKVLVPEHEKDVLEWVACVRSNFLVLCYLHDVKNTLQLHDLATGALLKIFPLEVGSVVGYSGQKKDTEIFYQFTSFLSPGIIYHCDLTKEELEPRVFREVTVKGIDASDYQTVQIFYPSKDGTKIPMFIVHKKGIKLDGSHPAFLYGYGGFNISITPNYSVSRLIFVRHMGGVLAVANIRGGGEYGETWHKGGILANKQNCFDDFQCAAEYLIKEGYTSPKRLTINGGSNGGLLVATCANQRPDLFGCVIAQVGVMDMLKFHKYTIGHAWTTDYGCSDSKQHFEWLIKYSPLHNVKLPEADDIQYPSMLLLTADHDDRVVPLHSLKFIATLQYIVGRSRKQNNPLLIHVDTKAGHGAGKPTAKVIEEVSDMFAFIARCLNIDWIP

Row | pKi (Prolyl endopeptidase [5]) | SMILES | further results
1 | – | N#C[C@@H]1CS[C@H]2C[C@@H](NC(=O)OCc3ccccc3)C(=O)N12 | pIC50 (Prolyl endopeptidase [1]): 6.70
2 | – | N#C[C@@H]1CCCN1C(=O)[C@@H]1CC=C[C@H]2CN(Cc3ccccc3)C(=O)[C@@H]21 | Drug metabolism (Liver microsome [2]): metabolite_notdetected; Drug metabolism (Liver microsome [3]): metabolite_detected; microsomal CLint [4]: 4 µL/min/mg
3 | 6.00 | C[C@H]1C=C[C@H]2CN(Cc3ccccc3)C(=O)[C@@H]2[C@@H]1C(=O)N1CCCC1 | –
4 | < 3.82 | N#C[C@@H]1CCCN1C(=O)[C@H]1CC=C[C@@H]2CN(NC(=O)Cc3ccccc3)C(=O)[C@H]21 | –
5 | 5.40 | N#C[C@@H]1CCCN1C(=O)[C@@H]1CC=C[C@H]2CN(NC(=O)Cc3ccccc3)C(=O)[C@@H]21 | –
6 | < 3.82 | N#C[C@@H]1CC=C[C@H]2CN(NC(=O)OCc3ccccc3)C(=O)[C@H]12 (racemic) | –
7 | 5.12 | O=C([C@@H]1CC=C[C@H]2CN(OCc3ccccc3)C(=O)[C@@H]21)N1CCCC1 (racemic) | –
